Measured values as given in ChEMBL document CHEMBL1201862, “PubChem BioAssay data set” (2004).
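Compound exposure: 48 hours, 5 concentrations, 96-well plates. Here, GI50 denotes the concentration required for 50% inhibition of growth.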 Active and inactive are the calls of the source. Rule as the data show it: active = GI50 up to about 1.1 µM and inactive = higher.

Key:
Experiment in all cases: DTP human tumour cell line panel, 48 h
SF-539 = test system: SF-539
NCI/ADR-RES = test system: NCI/ADR-RES
OVCAR-8 = test system: OVCAR-8
DU-145 = test system: DU-145
NCI-H226 = test system: NCI-H226
SK-MEL-2 = test system: SK-MEL-2
COLO 205 = test system: COLO 205
CCRF-CEM = test system: CCRF-CEM
OVCAR-3 = test system: OVCAR-3
786-0 = test system: 786-0
Hs-578T = test system: Hs-578T
OVCAR-5 = test system: OVCAR-5
KM12 = test system: KM12
SNB-75 = test system: SNB-75
UACC-257 = test system: UACC-257
MDA-MB-435 = test system: MDA-MB-435
MDA-MB-231 = test system: MDA-MB-231
SK-MEL-5 = test system: SK-MEL-5
SK-OV-3 = test system: SK-OV-3
HCC 2998 = test system: HCC 2998

| Compound | GI50 (SF-539) | GI50 (NCI/ADR-RES) | GI50 (OVCAR-8) | GI50 (DU-145) | GI50 (NCI-H226) | GI50 (SK-MEL-2) | GI50 (COLO 205) | GI50 (CCRF-CEM) | GI50 (OVCAR-3) | GI50 (786-0) | GI50 (Hs-578T) | GI50 (OVCAR-5) | GI50 (KM12) | GI50 (SNB-75) | GI50 (UACC-257) | GI50 (MDA-MB-435) | GI50 (MDA-MB-231) | GI50 (SK-MEL-5) | GI50 (SK-OV-3) | GI50 (HCC 2998) |
| --- | --- | --- | --- | --- | --- | --- | --- | --- | --- | --- | --- | --- | --- | --- | --- | --- | --- | --- | --- | --- |
| CN(C)/C=N\c1nncc2[nH]nnc12 | > 100 µM (inactive) | > 100 µM (inactive) | > 100 µM (inactive) | > 100 µM (inactive) | > 100 µM (inactive) | > 100 µM (inactive) | > 100 µM (inactive) | 26.7 µM (inactive) | > 100 µM (inactive) | > 100 µM (inactive) | > 100 µM (inactive) | > 100 µM (inactive) | > 100 µM (inactive) | > 100 µM (inactive) | > 100 µM (inactive) | > 100 µM (inactive) | > 100 µM (inactive) | > 100 µM (inactive) |  |  |
| NC(CC1=CCC=CC1)C(=O)O (centres undefined) |  |  | 67.1 µM (inactive) | > 100 µM (inactive) |  | 53.7 µM (inactive) | 38 µM (inactive) | 62.8 µM (inactive) | 51.5 µM (inactive) | > 100 µM (inactive) | 50.6 µM (inactive) | > 100 µM (inactive) | 68.2 µM (inactive) | 99.5 µM (inactive) | > 100 µM (inactive) | 71.8 µM (inactive) | > 100 µM (inactive) | > 100 µM (inactive) | 98.2 µM (inactive) | > 100 µM (inactive) |
| O=C(Nc1cccc(C(F)(F)F)c1)C(=O)C(C(=O)c1ccc2ccccc2c1)C1OC(=O)c2ccccc21 (centres undefined) | 2.23 µM (inactive) |  | 6.35 µM (inactive) | 26.5 µM (inactive) | 2.89 µM (inactive) | 8.57 µM (inactive) | 10.9 µM (inactive) | 3.18 µM (inactive) | 16 µM (inactive) | 4.21 µM (inactive) | 7.14 µM (inactive) | 14.3 µM (inactive) | 12.2 µM (inactive) | 12 µM (inactive) | 11.5 µM (inactive) | 17.4 µM (inactive) |  | 10.5 µM (inactive) | 21.6 µM (inactive) | 10.8 µM (inactive) |
| Cc1c(C#N)c(N)n(C2OC(CO)C(O)C(O)C2O)c(=S)c1C#N (centres undefined) | > 100 µM (inactive) |  | > 100 µM (inactive) | > 100 µM (inactive) | > 100 µM (inactive) |  |  | > 100 µM (inactive) | > 100 µM (inactive) | > 100 µM (inactive) | > 100 µM (inactive) | > 100 µM (inactive) | > 100 µM (inactive) | > 100 µM (inactive) | > 100 µM (inactive) |  | > 100 µM (inactive) | > 100 µM (inactive) | 6.47 µM (inactive) | > 100 µM (inactive) |
| O=C(N/N=C/c1ccccc1O)c1ccccc1Nc1ccccc1C(=O)N/N=C/c1ccccc1O | 2.19 µM (inactive) | 1 µM (active) | 0.647 µM (active) | 2.25 µM (inactive) | 0.403 µM (active) |  | 0.303 µM (active) | 0.931 µM (active) | 0.0546 µM (active) | 0.214 µM (active) |  | > 100 µM (inactive) | 1.38 µM (inactive) | 3.09 µM (inactive) | 2.97 µM (inactive) | 2.41 µM (inactive) | 99.3 µM (inactive) | 0.541 µM (active) | 3.1 µM (inactive) | > 100 µM (inactive) |
| CC[N+](C)(CC)Cc1ccccc1[N+](=O)[O-] | > 100 µM (inactive) | > 100 µM (inactive) | 39.8 µM (inactive) | > 100 µM (inactive) | 64.7 µM (inactive) | > 100 µM (inactive) | 46 µM (inactive) | > 100 µM (inactive) | 26.9 µM (inactive) | > 100 µM (inactive) | > 100 µM (inactive) | > 100 µM (inactive) | > 100 µM (inactive) | > 100 µM (inactive) | > 100 µM (inactive) | > 100 µM (inactive) | 72.8 µM (inactive) | > 100 µM (inactive) | > 100 µM (inactive) |  |
| COc1ccc(NC(=S)NC(=O)c2ccc3c(c2)Sc2ccccc2O3)c([N+](=O)[O-])c1 | 24.9 µM (inactive) | 33.6 µM (inactive) | 31 µM (inactive) | 26.9 µM (inactive) | > 100 µM (inactive) | 28.6 µM (inactive) | > 100 µM (inactive) | 36.4 µM (inactive) | 22.6 µM (inactive) | 17.9 µM (inactive) | 14 µM (inactive) | > 100 µM (inactive) | 60.1 µM (inactive) | 8.36 µM (inactive) | 33.1 µM (inactive) | 55.8 µM (inactive) | 22.9 µM (inactive) | 20.6 µM (inactive) | 29.9 µM (inactive) |  |
| CCOC(=O)CCC(C(=O)OCC)n1nnc2cc(Nc3c(C)[n+]([O-])c4cc(F)c(OCC)cc4[n+]3[O-])ccc21 (centres undefined) | 42.6 µM (inactive) | > 100 µM (inactive) | 87.1 µM (inactive) | > 100 µM (inactive) | > 100 µM (inactive) | 83.4 µM (inactive) | > 100 µM (inactive) | > 100 µM (inactive) | > 100 µM (inactive) | 34.5 µM (inactive) | 30.3 µM (inactive) | > 100 µM (inactive) | > 100 µM (inactive) | 37.4 µM (inactive) | > 100 µM (inactive) | > 100 µM (inactive) |  | > 100 µM (inactive) | > 100 µM (inactive) |  |
| CN1CC[C@@]2(c3cccc(O)c3)CC(=O)/C(=C/c3ccc(Cl)c(Cl)c3)[C@H]1C2 |  | 2.38 µM (inactive) | 3.05 µM (inactive) | 5.04 µM (inactive) |  |  |  | 2.26 µM (inactive) | 2.23 µM (inactive) | 1.71 µM (inactive) | 2.51 µM (inactive) | 4.35 µM (inactive) |  | 1.06 µM (active) | 3.41 µM (inactive) | 1.41 µM (inactive) |  | 2 µM (inactive) |  | 1.82 µM (inactive) |
| Cc1cc2c(cc1-c1cc3c(cc1C)C(C(C)C)=C(O)C(=O)/C3=C\Nc1c(C)n(C)n(-c3ccccc3)c1=O)/C(=C/Nc1c(C)n(C)n(-c3ccccc3)c1=O)C(=O)C(O)=C2C(C)C | 48.1 µM (inactive) | > 100 µM (inactive) | 82 µM (inactive) | > 100 µM (inactive) | 98.2 µM (inactive) | > 100 µM (inactive) | 82.6 µM (inactive) | 33 µM (inactive) | 50.2 µM (inactive) | 62.1 µM (inactive) | > 100 µM (inactive) | > 100 µM (inactive) | 71.6 µM (inactive) | > 100 µM (inactive) | > 100 µM (inactive) | 79.3 µM (inactive) | 42.1 µM (inactive) | 49.9 µM (inactive) | > 100 µM (inactive) |  |
| COC(=O)/C=C/c1cc(O)c2c(c1)[C@H](C(=O)OC)[C@@H](c1ccc(O)c(O)c1)O2 | 0.0311 µM (active) | 0.158 µM (active) | 0.169 µM (active) | 0.273 µM (active) | 2.48 µM (inactive) | 0.0783 µM (active) | 11.5 µM (inactive) | 0.0381 µM (active) | 0.0339 µM (active) | 0.152 µM (active) | 0.046 µM (active) | 35.7 µM (inactive) | 0.283 µM (active) | 0.0195 µM (active) | 17.4 µM (inactive) | < 0.01 µM (active) |  | 0.0335 µM (active) | 0.319 µM (active) | 19.2 µM (inactive) |
| CNc1ncnc2c1cnn2CCCCO | > 100 µM (inactive) |  |  | > 100 µM (inactive) | > 100 µM (inactive) | > 100 µM (inactive) | > 100 µM (inactive) | > 100 µM (inactive) | > 100 µM (inactive) | > 100 µM (inactive) | > 100 µM (inactive) | > 100 µM (inactive) |  |  | > 100 µM (inactive) | > 100 µM (inactive) | > 100 µM (inactive) | > 100 µM (inactive) | > 100 µM (inactive) | > 100 µM (inactive) |
| CCc1ccc2c(c1)CC1(C2)Cc2cc3c(cc2C1)C(=O)CC3 (centres undefined) | 18 µM (inactive) | 40.5 µM (inactive) | 21.9 µM (inactive) |  | 19.7 µM (inactive) | 4.26 µM (inactive) | 4.93 µM (inactive) | 2.94 µM (inactive) | 17.3 µM (inactive) | 25.6 µM (inactive) | > 100 µM (inactive) | 27.5 µM (inactive) | 10.5 µM (inactive) |  | 8.39 µM (inactive) | 2.69 µM (inactive) | 21.2 µM (inactive) | 5.01 µM (inactive) | 25.1 µM (inactive) | 10.5 µM (inactive) |
| C=C(C)[C@H]1[C@@H]2OC(=O)[C@H]1[C@]1(O)C[C@H]3OC34C(=O)O[C@H]2[C@@]41C.CC(C)(O)[C@H]1[C@@H]2OC(=O)[C@H]1[C@]1(O)C[C@H]3OC34C(=O)O[C@H]2[C@@]41C (some centres undefined) | > 100 µM (inactive) |  | > 100 µM (inactive) | > 100 µM (inactive) | > 100 µM (inactive) | > 100 µM (inactive) | > 100 µM (inactive) | > 100 µM (inactive) | > 100 µM (inactive) | > 100 µM (inactive) | > 100 µM (inactive) | > 100 µM (inactive) | > 100 µM (inactive) | > 100 µM (inactive) | > 100 µM (inactive) | > 100 µM (inactive) | > 100 µM (inactive) | > 100 µM (inactive) | > 100 µM (inactive) | > 100 µM (inactive) |
| Cc1c2c3cc(O)ccc3nc-2n(C)c2ccccc12 | 1.7 µM (inactive) | 0.957 µM (active) | 0.755 µM (active) | 3.08 µM (inactive) | 2.86 µM (inactive) |  |  | 0.743 µM (active) | 2.37 µM (inactive) | 0.53 µM (active) | 2.9 µM (inactive) | 3.3 µM (inactive) | 1.69 µM (inactive) | 2.45 µM (inactive) | 2.69 µM (inactive) | 1.36 µM (inactive) |  | 1.09 µM (active) | 1.46 µM (inactive) | 2.77 µM (inactive) |
